# Experimental data taken from article PMC6536897, “Phosphorylation of Glutamine Synthetase on Threonine 301 Contributes to Its Inactivation During Epilepsy” (Frontiers in Molecular Neuroscience, 2019).
# B1: Glutamine synthetase (GS) (Mus musculus) (protein)
# chain: ATSASSHLNKGIKQMYMSLPQGEKVQAMYIWVDGTGEGLRCKTRTLDCEPKCVEELPEWNFDGSSTFQSEGSNSDMYLHPVAMFRDPFRKDPNKLVLCEVFKYNRKPAETNLRHICKRIMDMVSNQHPWFGMEQEYTLMGTDGHPFGWPSNGFPGPQGPYYCGVGADKAYGRDIVEAHYRACLYAGVKITGTNAEVMPAQWEFQIGPCEGIRMGDHLWIARFILHRVCEDFGVIATFDPKPIPGNWNGAGCHTNFSTKAMREENGLKCIEEAIDKLSKRHQYHIRAYDPKGGLDNARRLTGFHETSNINDFSAGVANRGASIRIPRTVGQEKKGYFEDRRPSANCDPYAVTEAIVRTCLLNETGDEPFQYKN
# notes: pET-24a(+) plasmid pNG189, codon optimised; E. coli BL21(DE3); HisTrap and Superdex 200; homomeric decamer
# Tests used:
# [1] = target: T1, Glutamine synthetase (GS) (Mus musculus, UniProt P15105, T301A); assay: gamma-glutamyl hydroxamate assay, absorbance […] nm; type: biochemical
# T1 construct: gene Glul; pET-24a(+) plasmid pNG189, codon optimised; E. coli BL21(DE3); HisTrap and Superdex 200; homomeric decamer
# [2] = target: T2, Glutamine synthetase (GS) (Mus musculus, UniProt P15105, T301V); assay: gamma-glutamyl hydroxamate assay, absorbance […] nm; type: biochemical
# T2 construct: gene Glul; pET-24a(+) plasmid pNG189, codon optimised; E. coli BL21(DE3); HisTrap and Superdex 200; homomeric decamer
# [3] = target: T3, Glutamine synthetase (GS) (Mus musculus, UniProt P15105); assay: gamma-glutamyl hydroxamate assay, absorbance […] nm; type: biochemical
# T3 construct: gene Glul; pET-24a(+) plasmid pNG189, codon optimised; E. coli BL21(DE3); HisTrap and Superdex 200; homomeric decamer
# [4] = target: T4, Glutamine synthetase (GS) (Mus musculus, UniProt P15105, T301E); assay: gamma-glutamyl hydroxamate assay, absorbance […] nm; type: biochemical
# T4 construct: gene Glul; pET-24a(+) plasmid pNG189, codon optimised; E. coli BL21(DE3); HisTrap and Superdex 200; homomeric decamer
# [5] = target: T3, Glutamine synthetase (GS); assay: thermal shift (SyproOrange differential scanning fluorimetry); type: binding; details: varying MgCl2 and ATP; HEPES pH 7.5, 300 mM NaCl, 10% glycerol, 500 μM TCEP
# purified protein = substrate: N[C@@H](CCC(=O)O)C(=O)O; assay: purified protein; type: biochemical, Mus musculus; details: unphosphorylated GS (PKA + PKI), 20 mM ATP, 20 mM hydroxylamine, 20 mM MgCl2, imidazole pH 7.4, room temperature
# T4 sequence (P15105 2-373 T301E): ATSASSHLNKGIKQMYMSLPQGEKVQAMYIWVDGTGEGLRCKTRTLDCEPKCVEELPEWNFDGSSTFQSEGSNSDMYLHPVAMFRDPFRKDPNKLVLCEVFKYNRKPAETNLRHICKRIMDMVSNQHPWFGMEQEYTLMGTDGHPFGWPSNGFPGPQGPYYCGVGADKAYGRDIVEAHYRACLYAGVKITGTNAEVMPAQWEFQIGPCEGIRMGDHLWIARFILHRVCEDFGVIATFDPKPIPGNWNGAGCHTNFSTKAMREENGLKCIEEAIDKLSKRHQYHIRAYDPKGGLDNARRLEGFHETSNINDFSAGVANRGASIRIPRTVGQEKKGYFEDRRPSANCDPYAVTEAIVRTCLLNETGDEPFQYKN
# T2 sequence (P15105 2-373 T301V): as the sequence (P15105 2-373 T301E) above, with E300V counted along it
# T1 sequence (P15105 2-373 T301A): as the sequence (P15105 2-373 T301E) above, with E300A counted along it
molecule,measurement,setting,value
CS(=N)(=O)CC[C@H](N)C(=O)O (stereo partly drawn) [methionine sulfoximine],IC50,[1],> 100 mM
same,IC50,[2],7.6 ± 0.5 mM
same,IC50,[3],0.182 ± 0.014 mM
same,IC50,[4],> 100 mM
Nc1ncnc2c1ncn2[C@@H]1O[C@H](COP(=O)(O)OP(=O)(O)OP(=O)(O)O)[C@@H](O)[C@H]1O [ATP],Tm,[5],incubation with MgATP increased their melting temperatures to similar extents
B1,Km,purified protein,21 ± 1 mM
